The kinase profiling compilation of Christmann-Franck et al. (2016)

Columns and labels:
Assay in all cases: KINOMEscan competition binding
Settings in all cases: compound 10.0 µM
CDC2L2 (human) = CDC2L2 (human) (UniProt Q9UQ88)
AXL (human) = AXL (human) (UniProt P30530)
AKT2 (human) = AKT2 (human) (UniProt P31751)
ROS1 (human) = ROS1 (human) (UniProt P08922)
PRKG2 (human) = PRKG2 (human) (UniProt Q13237)
IKBKB (human) = IKBKB (human) (UniProt O14920)
PLK3 (human) = PLK3 (human) (UniProt Q9H4B4)
FLT4 (human) = FLT4 (human) (UniProt P35916)
STK35 (human) = STK35 (human) (UniProt Q8TDR2)
CLK4 (human) = CLK4 (human) (UniProt Q9HAZ1)
CAMKK1 (human) = CAMKK1 (human) (UniProt Q8N5S9)
BRAF (human) = BRAF (human) (UniProt P15056)
ERBB2 (human) = ERBB2 (human) (UniProt P04626)
HIPK2 (human) = HIPK2 (human) (UniProt Q9H2X6)
ICK (human) = ICK (human) (UniProt Q9UPZ9)
PKMYT1 (human) = PKMYT1 (human) (UniProt Q99640)
LYN (human) = LYN (human) (UniProt P07948)
LYN (human), sequence (P07948 whole entry, looked up): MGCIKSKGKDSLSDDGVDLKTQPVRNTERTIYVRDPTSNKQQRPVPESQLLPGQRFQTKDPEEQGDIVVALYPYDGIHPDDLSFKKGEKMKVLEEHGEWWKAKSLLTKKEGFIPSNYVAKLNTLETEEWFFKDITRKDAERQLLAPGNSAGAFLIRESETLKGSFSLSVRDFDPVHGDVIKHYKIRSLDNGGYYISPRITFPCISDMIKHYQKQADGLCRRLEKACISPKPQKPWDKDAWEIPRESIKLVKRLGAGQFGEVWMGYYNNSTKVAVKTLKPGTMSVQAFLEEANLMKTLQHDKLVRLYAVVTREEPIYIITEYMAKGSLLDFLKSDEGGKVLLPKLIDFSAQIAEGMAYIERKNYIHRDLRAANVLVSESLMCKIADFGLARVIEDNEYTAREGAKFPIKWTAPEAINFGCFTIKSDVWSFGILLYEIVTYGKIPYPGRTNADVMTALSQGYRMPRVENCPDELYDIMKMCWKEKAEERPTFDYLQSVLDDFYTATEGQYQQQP

ROCK1 (human) = ROCK1 (human) (UniProt Q13464)
ROCK1 (human), sequence (Q13464 whole entry, looked up): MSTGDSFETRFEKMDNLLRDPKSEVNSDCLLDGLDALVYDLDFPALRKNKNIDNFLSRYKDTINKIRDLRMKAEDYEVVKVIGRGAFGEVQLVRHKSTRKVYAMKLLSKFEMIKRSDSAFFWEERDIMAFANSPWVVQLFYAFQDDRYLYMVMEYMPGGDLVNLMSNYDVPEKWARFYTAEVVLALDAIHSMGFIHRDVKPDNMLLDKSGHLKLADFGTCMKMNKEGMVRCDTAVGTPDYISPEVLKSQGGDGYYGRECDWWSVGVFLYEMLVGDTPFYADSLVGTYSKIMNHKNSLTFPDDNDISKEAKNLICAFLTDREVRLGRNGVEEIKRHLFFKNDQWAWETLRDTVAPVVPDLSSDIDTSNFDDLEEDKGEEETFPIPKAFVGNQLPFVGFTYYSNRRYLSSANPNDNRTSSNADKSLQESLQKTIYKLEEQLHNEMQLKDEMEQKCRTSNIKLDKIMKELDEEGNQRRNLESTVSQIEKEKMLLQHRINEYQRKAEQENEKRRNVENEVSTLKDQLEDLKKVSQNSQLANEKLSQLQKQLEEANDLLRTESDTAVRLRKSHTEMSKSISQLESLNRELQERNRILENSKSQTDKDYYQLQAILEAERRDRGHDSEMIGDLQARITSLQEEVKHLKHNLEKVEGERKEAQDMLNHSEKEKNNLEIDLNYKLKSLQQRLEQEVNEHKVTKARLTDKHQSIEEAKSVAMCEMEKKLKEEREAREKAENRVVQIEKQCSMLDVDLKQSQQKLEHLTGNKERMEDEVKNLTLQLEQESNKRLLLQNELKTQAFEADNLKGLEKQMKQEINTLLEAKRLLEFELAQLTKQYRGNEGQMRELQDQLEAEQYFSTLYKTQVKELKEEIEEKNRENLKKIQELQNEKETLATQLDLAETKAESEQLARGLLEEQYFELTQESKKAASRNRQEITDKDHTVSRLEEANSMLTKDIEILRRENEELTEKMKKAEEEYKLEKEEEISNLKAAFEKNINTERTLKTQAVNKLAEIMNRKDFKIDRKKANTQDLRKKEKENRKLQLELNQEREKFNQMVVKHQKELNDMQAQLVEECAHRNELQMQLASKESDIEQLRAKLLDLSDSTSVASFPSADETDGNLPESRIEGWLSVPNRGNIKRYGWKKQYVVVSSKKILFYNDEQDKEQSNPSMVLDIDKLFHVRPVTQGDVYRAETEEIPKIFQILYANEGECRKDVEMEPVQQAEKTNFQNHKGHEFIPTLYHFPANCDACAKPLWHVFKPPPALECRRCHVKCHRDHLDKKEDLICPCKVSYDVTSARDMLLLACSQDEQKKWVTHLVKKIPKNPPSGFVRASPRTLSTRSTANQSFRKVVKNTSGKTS

MKNK1 (human) = MKNK1 (human) (UniProt Q9BUB5)
CAMK1G (human) = CAMK1G (human) (UniProt Q96NX5)
CDK19 (human) = CDK19 (human) (UniProt Q9BWU1)
PRPF4B (human) = PRPF4B (human) (UniProt Q13523)
LTK (human) = LTK (human) (UniProt P29376)
LTK (human), sequence (P29376 whole entry, looked up): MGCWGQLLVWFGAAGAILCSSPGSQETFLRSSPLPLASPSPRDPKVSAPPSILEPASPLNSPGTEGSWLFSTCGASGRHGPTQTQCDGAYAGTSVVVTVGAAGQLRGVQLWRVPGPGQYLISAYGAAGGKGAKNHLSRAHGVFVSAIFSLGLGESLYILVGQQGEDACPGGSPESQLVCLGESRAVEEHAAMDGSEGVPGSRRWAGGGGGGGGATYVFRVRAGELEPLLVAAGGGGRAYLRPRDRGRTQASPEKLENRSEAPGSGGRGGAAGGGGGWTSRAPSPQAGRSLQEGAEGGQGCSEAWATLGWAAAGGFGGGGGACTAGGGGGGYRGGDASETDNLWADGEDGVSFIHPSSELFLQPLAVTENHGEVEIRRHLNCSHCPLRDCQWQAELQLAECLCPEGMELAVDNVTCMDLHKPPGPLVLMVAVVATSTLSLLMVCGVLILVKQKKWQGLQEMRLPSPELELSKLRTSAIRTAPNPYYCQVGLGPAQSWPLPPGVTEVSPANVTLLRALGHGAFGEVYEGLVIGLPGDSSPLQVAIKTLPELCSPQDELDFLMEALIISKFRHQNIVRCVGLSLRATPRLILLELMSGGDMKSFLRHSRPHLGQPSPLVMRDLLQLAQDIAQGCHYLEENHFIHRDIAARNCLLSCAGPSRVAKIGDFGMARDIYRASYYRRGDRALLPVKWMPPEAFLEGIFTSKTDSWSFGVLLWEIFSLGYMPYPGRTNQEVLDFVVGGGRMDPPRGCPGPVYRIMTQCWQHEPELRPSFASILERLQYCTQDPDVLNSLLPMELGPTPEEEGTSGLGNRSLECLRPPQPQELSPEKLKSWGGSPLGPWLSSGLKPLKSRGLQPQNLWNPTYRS

LCK (human) = LCK (human) (UniProt P06239)
LIMK1 (human) = LIMK1 (human) (UniProt P53667)
PRKCH (human) = PRKCH (human) (UniProt P24723)
[1] = target: TYK2 JH2 pseudokinase (human) (UniProt P29597)
HIPK3 (human) = HIPK3 (human) (UniProt Q9H422)
HIPK3 (human), sequence (Q9H422 whole entry, looked up): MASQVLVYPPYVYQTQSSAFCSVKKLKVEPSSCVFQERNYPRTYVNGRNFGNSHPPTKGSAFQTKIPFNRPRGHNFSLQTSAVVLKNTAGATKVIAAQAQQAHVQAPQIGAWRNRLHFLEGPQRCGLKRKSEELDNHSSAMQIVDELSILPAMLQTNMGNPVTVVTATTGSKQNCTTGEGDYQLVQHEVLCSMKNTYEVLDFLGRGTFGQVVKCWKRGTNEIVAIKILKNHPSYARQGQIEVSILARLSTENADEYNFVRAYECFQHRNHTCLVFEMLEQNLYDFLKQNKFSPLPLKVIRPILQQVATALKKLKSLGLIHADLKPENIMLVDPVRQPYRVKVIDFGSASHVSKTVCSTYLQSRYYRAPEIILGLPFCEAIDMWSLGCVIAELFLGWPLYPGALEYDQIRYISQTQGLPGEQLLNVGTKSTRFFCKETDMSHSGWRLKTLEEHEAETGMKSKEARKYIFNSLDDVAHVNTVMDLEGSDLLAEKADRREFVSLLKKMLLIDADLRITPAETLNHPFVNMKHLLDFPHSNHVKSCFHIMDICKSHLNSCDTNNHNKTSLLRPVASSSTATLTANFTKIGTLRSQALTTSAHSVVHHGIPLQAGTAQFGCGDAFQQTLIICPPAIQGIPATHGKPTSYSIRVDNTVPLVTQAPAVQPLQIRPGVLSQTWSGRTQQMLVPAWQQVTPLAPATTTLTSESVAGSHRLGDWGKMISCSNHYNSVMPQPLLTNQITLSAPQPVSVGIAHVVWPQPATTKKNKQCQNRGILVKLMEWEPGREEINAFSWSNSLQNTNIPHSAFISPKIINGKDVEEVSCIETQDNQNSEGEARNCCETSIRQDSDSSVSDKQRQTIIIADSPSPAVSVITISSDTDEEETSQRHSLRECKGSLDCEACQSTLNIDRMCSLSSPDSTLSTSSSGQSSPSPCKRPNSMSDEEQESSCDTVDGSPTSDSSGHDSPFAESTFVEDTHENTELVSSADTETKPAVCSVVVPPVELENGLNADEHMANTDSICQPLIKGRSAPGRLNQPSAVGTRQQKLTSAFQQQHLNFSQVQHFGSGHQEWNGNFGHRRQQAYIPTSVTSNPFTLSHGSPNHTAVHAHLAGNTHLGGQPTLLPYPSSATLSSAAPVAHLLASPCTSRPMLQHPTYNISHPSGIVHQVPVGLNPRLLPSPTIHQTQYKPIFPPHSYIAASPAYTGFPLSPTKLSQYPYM

STK25 (human) = STK25 (human) (UniProt O00506)
MAP4K5 (human) = MAP4K5 (human) (UniProt Q9Y4K4)
MAP2K4 (human) = MAP2K4 (human) (UniProt P45985)
MAP2K4 (human), sequence (P45985 whole entry, looked up): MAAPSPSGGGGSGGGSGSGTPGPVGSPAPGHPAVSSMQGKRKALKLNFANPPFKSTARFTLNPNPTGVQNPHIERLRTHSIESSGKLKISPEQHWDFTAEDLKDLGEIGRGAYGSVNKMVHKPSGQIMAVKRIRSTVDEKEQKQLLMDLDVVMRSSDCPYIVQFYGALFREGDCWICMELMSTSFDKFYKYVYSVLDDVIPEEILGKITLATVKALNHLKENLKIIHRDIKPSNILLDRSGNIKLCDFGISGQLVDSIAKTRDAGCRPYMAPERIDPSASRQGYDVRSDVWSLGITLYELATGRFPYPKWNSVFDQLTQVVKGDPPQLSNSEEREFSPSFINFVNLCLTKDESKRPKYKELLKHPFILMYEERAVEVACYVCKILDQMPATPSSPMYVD

MAPK8 (human) = MAPK8 (human) (UniProt P45983)
BLK (human) = BLK (human) (UniProt P51451)
MLTK (human) = MLTK (human) (UniProt Q9NYL2)
MARK1 (human) = MARK1 (human) (UniProt Q9P0L2)
[2] = system: PIK3CA (human), P42336 [E545K]
FLT1 (human) = FLT1 (human) (UniProt P17948)
PRKACB (human) = PRKACB (human) (UniProt P22694)
MAPK11 (human) = MAPK11 (human) (UniProt Q15759)
MAPK11 (human), sequence (Q15759 whole entry, looked up): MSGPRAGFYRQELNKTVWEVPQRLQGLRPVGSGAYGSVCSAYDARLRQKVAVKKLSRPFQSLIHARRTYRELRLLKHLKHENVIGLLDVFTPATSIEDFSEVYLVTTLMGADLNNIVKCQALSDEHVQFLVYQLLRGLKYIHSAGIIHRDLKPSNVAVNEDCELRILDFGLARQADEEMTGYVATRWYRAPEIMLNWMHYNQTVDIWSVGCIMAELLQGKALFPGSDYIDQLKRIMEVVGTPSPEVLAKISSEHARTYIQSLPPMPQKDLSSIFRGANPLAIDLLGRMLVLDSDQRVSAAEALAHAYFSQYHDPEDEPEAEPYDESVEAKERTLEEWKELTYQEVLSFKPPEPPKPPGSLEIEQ

ANKK1 (human) = ANKK1 (human) (UniProt Q8NFD2)
[3] = system: PIK3CA (human), P42336 [C420R]
DAPK2 (human) = DAPK2 (human) (UniProt Q9UIK4)
DAPK2 (human), sequence (Q9UIK4 whole entry, looked up): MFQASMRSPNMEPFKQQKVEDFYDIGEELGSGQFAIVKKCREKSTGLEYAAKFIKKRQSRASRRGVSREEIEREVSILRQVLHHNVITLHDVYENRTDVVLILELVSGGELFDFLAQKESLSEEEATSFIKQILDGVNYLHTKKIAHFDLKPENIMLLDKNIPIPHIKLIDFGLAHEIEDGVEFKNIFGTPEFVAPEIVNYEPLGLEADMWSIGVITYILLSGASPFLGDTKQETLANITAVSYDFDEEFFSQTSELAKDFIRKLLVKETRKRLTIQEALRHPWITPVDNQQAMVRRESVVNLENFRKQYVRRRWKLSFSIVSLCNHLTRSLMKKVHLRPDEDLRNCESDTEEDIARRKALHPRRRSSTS

SMILES: O=C1Nc2cc(Br)ccc2/C1=C1/Nc2ccccc2/C1=N\O
- kinase still bound, per cent of control (CDC2L2 (human)): 100%
- kinase still bound, per cent of control (AXL (human)): 0.25%
- kinase still bound, per cent of control (AKT2 (human)): 100%
- kinase still bound, per cent of control (ROS1 (human)): 100%
- kinase still bound, per cent of control (PRKG2 (human)): 24%
- kinase still bound, per cent of control (IKBKB (human)): 78%
- kinase still bound, per cent of control (PLK3 (human)): 100%
- kinase still bound, per cent of control (FLT4 (human)): 2.5%
- kinase still bound, per cent of control (STK35 (human)): 60%
- kinase still bound, per cent of control (CLK4 (human)): 99%
- kinase still bound, per cent of control (CAMKK1 (human)): 4.8%
- kinase still bound, per cent of control (BRAF (human)): 89%
- kinase still bound, per cent of control (ERBB2 (human)): 87%
- kinase still bound, per cent of control (HIPK2 (human)): 7.4%
- kinase still bound, per cent of control (ICK (human)): 0.1%
- kinase still bound, per cent of control (PKMYT1 (human)): 90%
- kinase still bound, per cent of control (LYN (human)): 6.2%
- kinase still bound, per cent of control (ROCK1 (human)): 61%
- kinase still bound, per cent of control (MKNK1 (human)): 51%
- kinase still bound, per cent of control (CAMK1G (human)): 42%
- kinase still bound, per cent of control (CDK19 (human)): 100%
- kinase still bound, per cent of control (PRPF4B (human)): 13%
- kinase still bound, per cent of control (LTK (human)): 100%
- kinase still bound, per cent of control (LCK (human)): 4.8%
- kinase still bound, per cent of control (LIMK1 (human)): 59%
- kinase still bound, per cent of control (PRKCH (human)): 100%
- kinase still bound, per cent of control [1]: 28%
- kinase still bound, per cent of control (HIPK3 (human)): 12%
- kinase still bound, per cent of control (STK25 (human)): 18%
- kinase still bound, per cent of control (MAP4K5 (human)): 9.2%
- kinase still bound, per cent of control (MAP2K4 (human)): 67%
- kinase still bound, per cent of control (MAPK8 (human)): 23%
- kinase still bound, per cent of control (BLK (human)): 0.05%
- kinase still bound, per cent of control (MLTK (human)): 26%
- kinase still bound, per cent of control (MARK1 (human)): 38%
- kinase still bound, per cent of control [2]: 100%
- kinase still bound, per cent of control (FLT1 (human)): 1.3%
- kinase still bound, per cent of control (PRKACB (human)): 100%
- kinase still bound, per cent of control (MAPK11 (human)): 100%
- kinase still bound, per cent of control (ANKK1 (human)): 4.8%
- kinase still bound, per cent of control [3]: 100%
- kinase still bound, per cent of control (DAPK2 (human)): 2.6%
